Assay results taken from US4159328A, “Tetrahydro-1,3,5-thiadiazin-4-one derivative” (Nihon Nohyaku Co., Ltd., priority 1977, dated 1979).

Assays:
Assay type in all cases: in vivo
[1] = tested on: larvae of brown planthopper (Nilaparvata lugens Stahl); test: Test Example 1: insecticidal activity against larvae of brown planthopper; details: 120 h, third-instar larvae, 25° C., 5 days after treatment
Method in brief: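 Rice seedlings at 1.5-leaf stage were dipped for 30 s in a 400 ppm test composition, air-dried, and infested with third-instar N. lugens larvae. After holding at 25 °C, mortality was scored 5 or 7 days post-treatment from three replicates.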

[2] = tested on: larvae of 28-spotted lady beetle (Epilachna vigintioctopunctana Fabricius); test: Test Example 8: insecticidal activity against larvae of 28-spotted lady beetle; details: 120 h
Method in brief: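 Tomato leaflets dipped 30 s in 100 ppm test composition, air-dried, and placed in Petri dishes with seven second-instar larvae at 25° C. Mortality scored five days after treatment, two replicates.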

[3] = tested on: larvae of white-backed planthopper (Sogatella furcifera Horvath); test: Test Example 2: insecticidal activity against larvae of white-backed planthopper; details: 168 h, 400 ppm, first-instar larvae, 25° C., seven days after treatment, read-out: Mortality
Method in brief: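 Rice seedlings at 1.5-leaf stage were dipped 30 s in 400 ppm test composition, air-dried, and infested with five first-instar larvae. Tubes were held at 25°C, and mortality was scored at 7 days from triplicate tests.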

[4] = tested on: larvae of house mosquito (Culex pipiens pallens Coquillett); test: Test Example 6: insecticidal activity to larvae of house mosquito; details: 120 h
Method in brief: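 Twenty first-instar Culex pipiens pallens larvae placed with feed in test composition diluted in deionized water to 10 ppm. Kept at 25 °C, and mortality counted five days after treatment.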

[5] = tested on: larvae of diamond-back moth (Plutilla xylostella Linn'e); test: Test Example 10: insecticidal activity against larvae of diamond-back moth; details: 400 ppm, first-instar larvae, three days; 4320 min
From the text: Insecticidal activity against larvae of diamond-back moth (Plutilla xylostella Linn'e). Testing method: A test composition of 400 ppm concentration was sprayed over the pot-planted chinese cabbage in a greenhouse by means of a spray gun. After air-drying, the chinese cabbage was infested with 10 first-instar larvae of diamond-back moth and was left standing in the greenhouse. Three days after the treatment, the dead-and-survival was inspected to calculate the mortality (3-replication test).

[6] = tested on: larvae of green rice leafhopper (Nephotettix cincticeps Uhler); test: Test Example 5: activity against larvae of green rice leafhopper; details: 168 h, 400 ppm, second-instar larvae, 25° C., seven days after treatment, read-out: Mortality
Method in brief: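 Rice seedlings at 1.5 leaf age dipped 30 seconds in 400 ppm test composition, air-dried, then infested with five second-instar larvae. Kept at 25° C; mortality scored seven days after treatment, three replicates.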

[7] = tested on: larvae of bug. (Togo hemipterus Scott); test: Test Example 9: insecticidal activity against larvae of bug; details: 120 h, 10 ppm, first-instar larvae, 25° C., five days, read-out: Mortality
Description: Insecticidal activity against larvae of bug. (Togo hemipterus Scott).
Test method: Into a glass tube (1.6 cm in internal diameter and 9 cm in length), was added 1 ml of a test composition in 10 ppm concentration just to moisten the absorbent cotton. Five rice seeds and five first-instar larvae were introduced into the glass tube and the tube end was covered with a piece of Japanese paper. The glass tube was kept in a constant temperature cabinet at 25° C. Five days after treatment, the dead-and-survival was inspected to calculate the mortality (3-replication test).

[8] = tested on: cirrus red mite (Panonychus citri McGregor); test: Test Example 4: activity to citrus red mite (Rothamstead method); set-up: concentration or dose not given beside the values; details: two days after treatment, 25° C.; 2880 min
Description: Activity to cirrus red mite (Panonychus citri McGregor).
Testing method: The test was performed by Rothamstead method. A test composition was sprayed by means of a spray gun over grapefruit leaves infested with citrus red mites. After air-drying the grapefruit was left standing in a constant temperature cabinet at 25° C. Two days after the treatment, the number of survived mites was counted to calculate the mortality.

[9] = tested on: two-spotted spider mite (Tetranychus urticae Koch); test: Test Example 3: activity to two-spotted spider mite; details: 120 h, 1,000 ppm, 5 days after treatment
From the text: Activity to two-spotted spider mite (Tetranychus urticae Koch).
Testing method: Two-spotted spider mites were set free on the pot-planted soybean in a greenhouse. On the next day, a test composition of 1,000 ppm concentration was sprayed over the soybean by means of a spray gun. Two days or five days after the treatment, dead-and-survival was inspected to calculate the mortality.

[10] = tested on: adult rust-red-flour beetle (Tribolium castaneum Herbst); test: Test Example 7: insecticidal activity to adult rust-red-flour beetle; details: 400 ppm, adults, 25° C., 24 hours, read-out: Mortality
Description: Insecticidal activity to adult rust-red-flour beetle (Tribolium castaneum Herbst).
Testing method: Into a 9-cm Petri dish covered on the bottom with a piece of filter paper, was introduced 7 ml of a test composition of 400 ppm concentration. Ten adult rust-red flour beetles were released in the Petri dish and left standing in a constant temperature cabinet at 25° C. After 24 hours, the dead-and-survival was inspected to calculate the mortality.

Row | Structure (SMILES) | mortality at 400 ppm [1] [%] | mortality at 100 ppm [2] [%] | mortality at 400 ppm [3] [%] | mortality at 10 ppm [4] [%] | Mortality [5] [%] | mortality at 400 ppm [6] [%] | mortality at 10 ppm [7] [%] | Mortality [8] [%] | mortality at 1000 ppm [9] [%] | mortality at 400 ppm [10] [%]
1 | Cc1cccc(N2CSC(=NC(C)(C)C)N(C(C)C)C2=O)c1 [Compound 326] | 100 | 100 | 100 | 100 | 100 | 100 | – | – | – | –
2 | CCN=C1SCN(c2cccc(C)c2)C(=O)N1CC [Compound 324] | 100 | – | – | – | 100 | – | – | – | – | –
3 | CC(C)CN1C(=O)N(c2ccccc2)CSC1=NC(C)(C)C [Compound 150] | 100 | 80 | – | 100 | – | 90 | 50 | – | – | –
4 | CCC(C)N1C(=O)N(c2ccccc2)CSC1=NC(C)(C)C (stereo not drawn) [Compound 152] | 100 | 100 | 100 | 100 | – | 100 | 100 | – | – | –
5 | C=CCN1C(=O)N(c2ccccc2)CSC1=NC(C)C [Compound 141] | 100 | 100 | – | 100 | – | 100 | 80 | – | – | –
6 | CC(C)(C)N=C1SCN(c2ccc(Cl)cc2)C(=O)N1C1CCCCC1 [Compound 208] | – | – | – | – | 80 | – | – | – | – | –
7 | Cc1cccc(N2CSC(=NC(C)C)N(Cc3ccccc3)C2=O)c1 [Compound 329] | – | – | – | – | 100 | – | – | – | – | –
8 | CCN1C(=O)N(c2ccccc2)CSC1=NC(C)(C)C [Compound 131, 2-t-Butylimino-3-ethyl-5-phenyl-tetrahydro-1,3,5-thiadiazin-4-one] | 100 | 100 | – | 100 | – | 100 | 100 | 100 | – | –
9 | CC(C)N=C1SCN(c2ccccc2)C(=O)N1C(C)C [Compound 144, 2-Isopropylimino-3-isopropyl-5-phenyltetrahydro-1,3,5-thiadiazin-4-one] | – | 100 | 100 | 100 | – | 100 | 100 | – | – | –
10 | CC(C)N1C(=O)N(c2ccccc2)CSC1=NC(C)(C)CC(C)(C)C [Compound 156] | 100 | 90 | – | 100 | – | 100 | 50 | – | – | –
11 | CN=C1SCN(c2cccc(Cl)c2)C(=O)N1C [Compound 213] | 100 | – | – | 100 | – | – | – | – | 100 | 100
12 | CCN1C(=O)N(c2cccc(Cl)c2)CSC1=NC(C)(C)C [Compound 216, 2-t-Butylimino-3-ethyl-5-(m-chlorophenyl)-tetrahydro-1,3,5-thiadiazin-4-one] | 100 | – | – | – | – | – | 100 | – | 70 | 100
13 | C=CCN1C(=O)N(c2ccccc2)CSC1=NCCC [Compound 140] | 100 | 50 | – | 100 | – | 100 | 50 | – | – | –
14 | CCc1ccc(N2CSC(=NC(C)(C)C)N(C(C)C)C2=O)cc1 [Compound 333, 2-t-butylimino-3-isopropyl-5-(p-ethylphenyl)-tetrahydro-1,3,5-thiadiazin-4-one] | 100 | – | 100 | 100 | 100 | 100 | – | – | – | –
15 | CC(C)CN1C(=O)N(c2cccc(Cl)c2)CSC1=NC(C)(C)C [Compound 223] | 100 | – | – | 100 | – | – | – | – | 70 | 100
16 | CCCN1C(=O)N(c2cccc(Cl)c2)CSC1=NC(C)(C)C [Compound 232] | 70 | – | – | – | 70 | – | – | – | – | –

Row | Structure (SMILES) | mortality at 400 ppm [1] [%] | mortality at 100 ppm [2] [%] | mortality at 400 ppm [3] [%] | mortality at 10 ppm [4] [%] | Mortality [5] [%] | mortality at 400 ppm [6] [%] | mortality at 10 ppm [7] [%] | Mortality [8] [%] | mortality at 1000 ppm [9] [%] | mortality at 400 ppm [10] [%]
17 | CCCN1C(=O)N(c2ccccc2)CSC1=NC(C)C [Compound 135] | 100 | 100 | – | 100 | – | – | 100 | 100 | – | –
18 | CC(C)N=C1SCN(c2ccc([N+](=O)[O-])cc2[N+](=O)[O-])C(=O)N1C(C)C [Compound 366] | – | – | – | – | 100 | – | – | – | – | –
19 | C=CCN1C(=O)N(c2ccccc2)CSC1=NC(C)(C)C [Compound 143] | – | 100 | – | 80 | – | 100 | 100 | – | – | –
20 | CCc1ccc(N2CSC(=NC)N(C)C2=O)cc1 [Compound 331, 2-methylimino-3-methyl-5-(p-ethylphenyl)-tetrahydro-1,3,5-thiadiazin-4-one] | – | – | – | – | 100 | – | – | – | – | –
21 | CC(C)N1C(=O)N(c2cccc(Cl)c2)CSC1=NC(C)(C)CC(C)(C)C [Compound 222] | 100 | – | – | – | – | – | 100 | – | 80 | 100
22 | CCCCN1C(=O)N(c2cccc(Cl)c2)CSC1=NC(C)(C)C [Compound 236] | 80 | – | – | – | 100 | – | – | – | – | –
23 | C=CCN1C(=O)N(c2cccc(Cl)c2)CSC1=NC(C)C [Compound 217, 2-Isopropylimino-3-allyl-5-(m-chlorophenyl)-tetrahydro-1,3,5-thiadiazin-4-one] | 100 | – | – | – | – | – | 100 | – | 100 | 100
24 | CC(C)(C)N=C1SCN(c2ccccc2)C(=O)N1C1CCCCC1 [Compound 155, 2-t-Butylimino-3-cyclohexyl-5-phenyl-tetrahydro-1,3,5-thiadiazin-4-one] | 50 | 100 | – | 100 | – | – | 100 | – | – | –
25 | C=CCN1C(=O)N(c2ccccc2)CSC1=NC(C)CC (stereo not drawn) [Compound 142] | 100 | 100 | – | 100 | – | 100 | 100 | – | – | –
26 | CC(C)N1C(=O)N(c2cccc(Cl)c2)CSC1=NC1CCCCC1 [Compound 230] | – | – | – | – | 100 | – | – | – | – | –
27 | CCC(C)N=C1SCN(c2cccc(Cl)c2)C(=O)N1C(C)CC (stereo not drawn) [Compound 224] | 100 | – | 100 | 100 | – | 100 | – | – | 100 | 100
28 | COCCN1C(=O)N(c2ccc(Cl)cc2)CSC1=NC(C)C [Compound 207] | – | – | – | – | 100 | – | – | – | – | –
29 | CC(C)N=C1SCN(c2ccccc2)C(=O)N1C [Compound 118, 2-Isopropylimino-3-methyl-5-phenyl-tetrahydro-1,3,5-thiadiazin-4-one] | – | – | – | – | – | – | 100 | 100 | – | –
30 | CCC(C)N=C1SCN(c2cccc(C)c2)C(=O)N1C(C)CC (stereo not drawn) [Compound 327] | 100 | 100 | 100 | 90 | 100 | 100 | – | – | 100 | –
31 | C=CCN1C(=O)N(c2cccc(Cl)c2)CSC1=NC(C)(C)C [Compound 218] | 100 | – | – | 100 | – | – | – | 100 | 100 | 100
32 | CCC(C)N=C1SCN(c2ccccc2)C(=O)N1C(C)CC (stereo not drawn) [Compound 151] | 100 | 100 | – | 100 | – | 100 | 80 | – | – | –
